# According to PMC8891364, “Synthesis, and docking studies of novel heterocycles incorporating the indazolylthiazole moiety as antimicrobial and anticancer agents” (Scientific Reports, 2022):
# What was measured:
# [1] = tested on: Streptococcus mutans ATCC 25175; test: Antimicrobial microtiter-plate MIC assay; assay type: cell-based; conditions: for MIC Streptococcus mutant: 24 h, 37 °C; for MIC: Streptococcus mutans, ATCC25175, 24 h, read-out: MIC Streptococcus mutant
# Procedure: (§1) The antimicrobial activity of the newly synthesized compounds (2–9) was evaluated against three model pathogenic microorganisms as follows: Streptococcus mutans ATCC 25175 (Gram-positive bacterium); Pseudomonas aeruginosa ATCC 27853 (Gram-negative bacterium); and Candida albicans ATCC 10231 (fungi-like unicellular organism). After cultivating the three tested pathogens overnight in LB broth, 100 µL of each tested organism (10^6 CFU/mL) was added separately to 100 µL of the serially diluted test compounds (5–80 µg) in a 96-well tissue culture plate and incubated at 37 °C for 24 h. Eventually, microbial growth was measured at 600 nm, and the results are presented in the form of MIC (Table 4). Two antibacterial reference drugs, ampicillin and ciprofloxacin, and one antifungal drug, clotrimazole, were incorporated into the experiments.
# [2] = tested on: Pseudomonas aeruginosa ATCC 27853; test: Antimicrobial microtiter-plate MIC assay; assay type: cell-based; conditions: 24 h, 37 °C; for MIC: Pseudomonas aeruginosa, ATCC27853
# Procedure: as §1
# [3] = tested on: Candida albicans ATCC 10231; test: Antimicrobial microtiter-plate MIC assay; assay type: cell-based; conditions: for MIC: ATCC10231; for MIC / MIC Candida albicans: 24 h, 37 °C
# Procedure: as §1
# HFB-4 cells = test: MTT cytotoxicity assay, normal human melanocytes; assay type: cell-based; conditions: 48 h; for IC50: Melanocyte
# Procedure: (§2) The human melanocytes (HFB-4) cells, hepatoma (HepG-2) cells, and colon carcinoma (Caco-2) cells were obtained from American Type Culture Collection (ATCC, USA). The cytotoxicity of the newly synthesized compounds (at various concentrations) was determined using the 3-[4, 5-dimethylthiazol]-2, 5-diphenyltetrazolium bromide method (MTT assay)[59] against HFB-4 cells (normal human melanocytes), HepG-2 cells (hepatoma), and Caco-2 cells (colon carcinoma). Normal and cancer cells (1.0 × 10^4) were cultured in sterile 96-well microplates, and incubated for 24 h in DMEM (Lonza, USA) supplemented with 10% fetal bovine serum (Gibco, USA) for HFB-4 and Caco-2 cells or in an RPMI-1640 medium (Lonza, USA) supplemented with 10% FBS for HepG-2 cells. After 24 h of incubation, different doses of the tested synthesized compounds ([…]) were added in triplicate to all cells and incubated for another 48 h in 5% CO2. After washing the cells 3 times with fresh media, to remove dead cells and debris, a solution of MTT (Sigma -Aldrich, 0.5 mg/mL) was added to each well and further incubated for 2–5 h at 37 °C. Afterward, the MTT solution was decanted and 200 µL of DMSO was added. The optical density was measured at 570 nm using a microplate reader (BMG LabTech, Germany), where the cells’ relative viability (%) was estimated using the following equation: viability of cells (%) = [A1 − A0/AU − A0] × 100, where A1 is the absorbance of the test compound, A0 is the absorbance of the blank, and AU is the absorbance of untreated cells (control).
# (§3) The antitumor activity of the synthesized compound was determined by calculating the IC50 value (half maximal inhibitory concentration) using Graph Pad Prism 6.0 software. The value of IC50 indicates the derivative concentration that causes 50% cell death, whereas the value of the selectivity index (SI), indicating the ratio of the IC50 value of normal cells versus the IC50 value of tumor cells, was also included as reported by[60],[61].
# HepG-2 cells = test: MTT antitumor assay, hepatoma cells; assay type: cell-based, human; conditions: for IC50 HepG-2 / IC50: MTT, 48 h; for SI HepG-2: ratio of IC50 of normal cells (HFB-4) versus IC50 of tumor cells; for IC50: Homo sapiens, HepG2, 48 h
# Procedure: as §2, §3
# Caco-2 cells = test: MTT antitumor assay, colon carcinoma cells; assay type: cell-based; conditions: for IC50 Caco-2 / IC50: MTT, 48 h; for SI Caco-2: ratio of IC50 of normal cells (HFB-4) versus IC50 of tumor cells; for IC50: Homo sapiens, Caco-2, 48 h
# Procedure: as §2, §3
# Pseudomonas aeruginosa = test: Microbial-biofilm inhibition, tissue-culture plate technique (TCP); assay type: cell-based; conditions: 25 µg/mL, 24 h
# Procedure: (§4) The activity of the newly synthesized compounds against microbial biofilm formation was estimated through the tissue-culture plate technique (TCP) as follows: the three above-mentioned pathogens, Streptococcus mutans, Pseudomonas aeruginosa, and Candida albicans were cultivated overnight in LB broth at 37 °C. Afterward, 200 µL of each diluted organism (10^6 CFU/mL) was inoculated separately (in triplicate) into 96-well tissue culture plates and incubated overnight at 37 °C. The free planktonic cells were removed, after the incubation period, by flipping the plate and washing each well three times with phosphate-buffered-saline (PBS), pH 7.1. To each well, 175 µL of fresh LB broth was added along with 25 µL of the tested compound (25 µg/mL final concentrations). The plates were reincubated at 37 °C for another 24 h, washed with PBS buffer pH 7.1 three times, and dried for 5 min at 50 °C. The formed biofilm was stained with crystal violet solution (0.1% w/v) for 5 min. The excess stain was decanted, and the stained biofilm was solubilized with 200 µL of glacial acetic acid (30% v/v), where the developed blue color was measured at 590 nm. The results are expressed as relative inhibition (%) compared to untreated groups (control). Controls were prepared by culturing the three pathogens on LB medium without any tested compounds.
# Candida albicans = test: as above; assay type: cell-based; conditions: 24 h, relative to untreated; for inhibition at 25 µg/mL: Candida albicans
# Procedure: as §4
# Streptococcus mutans = test: as above; assay type: cell-based; conditions: 25 µg/mL, 24 h
# Procedure: as §4
# β-catenin gene = test: qRT-PCR gene expression in HepG-2 and Caco-2 cells; assay type: cell-based, human; conditions: IC50 concentrations, 2 days
# Procedure: The effects of the potent antitumor derivatives (4, 6, and 8) on the expression level of some tumor regulating genes were elucidated through quantitative real-time PCR (qRT- PCR) and compared to 5-fluorouracil (5-FU) as a reference antitumor drug. Five genes were assessed, including the tumor oncogene (Bcl-2), tumor suppressor gene (p53), matrix metalloproteinase gene (MMP-9), vascular endothelial growth factor gene (VEGF), and beta-catenin protein gene (β-catenin), in HepG-2 and Caco-2 cells, before and after treatment for 2 days with IC50 concentrations for compounds 4, 6, and 8. Following the extraction of total RNA from the tested cells, using the Gene JET RNA Purification Kit (Thermo Scientific, USA), cDNA synthesis was performed according to the cDNA Synthesis Kit protocol (Thermo Scientific, USA). qRT PCR was performed using the SYBR green kit and specific primers (Forward/Reverse) as follows: 5′-[…]-3'/5'-TCG GTCTCCTAAAAGCAGGC-3′ for the Bcl-2 gene, 5′-TAACAGTTCCTGCATG GG CG GC-3′/5′-[…]-3′ for p53, 5'-CTGCGTATTTCCATT CATC-3'/5'-CCTTGGGTCAGGTTTAGAG-3' for the MMP-9 gene, 5'-GGCTTTACT GCTGTACCTCC-3'/5'-CAAATGCTTTCTCCGCTCT-3' for the VEGF gene, and 5'-CATATGCGGCTGCTG TTCTA-3'/5'-CCGAAAG CCGTTTCTTGTAG-3' for the β-catenin gene. The upregulation and/or downregulation of the expression of the tested genes in Caco-2 and HepG-2 cells was determined by using the equation 2^−ΔΔCT[60].
Structure (SMILES),MIC Streptococcus mutant [1],MIC [1],MIC Pseudomonas aeruginosa [2],MIC [2],MIC ([3]; Candida albicans),SI HepG-2 (HepG-2 cells),SI Caco-2 (Caco-2 cells),biofilm inhibition activity Pseudomonas aeruginosa (in words) (Pseudomonas aeruginosa),IC50 (HFB-4 cells),IC50 (HepG-2 cells),IC50 (Caco-2 cells),inhibition at 25 µg/mL (Candida albicans),other results
"CC1(C)S[C@@H]2[C@H](NC(=O)[C@H](N)c3ccccc3)C(=O)N2[C@H]1C(=O)O [Ampicillin, ampicillin, reference compound]",13.5 ± 0.234 µg/mL,13.5 µg/mL,–,–,–,–,–,–,–,–,–,–,–
"O=C(O)c1cn(C2CC2)c2cc(N3CCNCC3)c(F)cc2c1=O [Ciprofloxacin, ciprofloxacin, reference compound]",–,–,18.7 ± 0.475 µg/mL,18.7 µg/mL,–,–,–,–,–,–,–,–,–
"Clc1ccccc1C(c1ccccc1)(c1ccccc1)n1ccnc1 [Clotrimazole, clotrimazole, reference compound]",–,–,–,–,14.5 ± 1.25 µg/mL,–,–,–,–,–,–,–,–
NS(=O)(=O)c1ccc(Nc2csc(N3NC4=C(CCCC4)C3c3ccccc3)n2)cc1 (stereo not drawn) [Compound 2],49.71 ± 0.5849 µg/mL,–,40.13 ± 2.109 µg/mL,–,–,17.39 ± 0.24,18.28 ± 0.25,high biofilm inhibition activity,–,–,–,–,IC50 HFB-4 (HFB-4 cells): 110.8 ± 1.54 µg/mL; IC50 HepG-2 (HepG-2 cells): 6.37 ± 0.36 µg/mL; IC50 Caco-2 (Caco-2 cells): 6.06 ± 1.26 µg/mL; MIC Candida albicans [3]: 52.77 ± 0.7862 µg/mL; biofilm inhibition Pseudomonas aeruginosa (Pseudomonas aeruginosa; relative to untreated): approximately 58.5%
"N#CC1=C(N)N(c2ccc(S(N)(=O)=O)cc2)c2nc(N3NC4=C(CCCC4)C3c3ccccc3)sc2C1c1ccccc1 (stereo not drawn) [Compound 3, 4-(5-amino-6-cyano-7-phenyl-2-(3-phenyl-1,3,4,5,6,7-hexahydro-2H-indazol-2-yl)thiazolo[4,5-b]pyridin-4(7H)-yl) benzenesulfonamide]",11.12 ± 0.4232 µg/mL,–,18.29 ± 2.114 µg/mL,–,–,7.20 ± 0.20,7.18 ± 0.20,high biofilm inhibition activity,–,–,–,–,IC50 HFB-4 (HFB-4 cells): 55.59 ± 1.58 µg/mL; IC50 HepG-2 (HepG-2 cells): 7.72 ± 0.38 µg/mL; IC50 Caco-2 (Caco-2 cells): 7.74 ± 0.81 µg/mL; MIC Candida albicans [3]: 40.74 ± 0.5511 µg/mL; MIC Candida albicans ([3]; listed as compound 3): 40.74 µg/mL; antifungal activity as share of clotrimazole activity ([3]; Candida albicans): 36%; MIC Pseudomonas aeruginosa ([2]; listed as derivative 3): 18.29 µg/mL; MIC Streptococcus mutant ([1]; listed as derivative 3): 11.2 µg/mL; biofilm inhibition Candida albicans (Candida albicans; 25 µg/mL): 69%; antibiofilm formation activity Streptococcus mutans (in words) (Streptococcus mutans): had antibiofilm formation activities; biofilm inhibition Streptococcus mutans (Streptococcus mutans; relative to untreated): around 64%
"N#Cc1c(N)sc2sc(N3NC4=C(CCCC4)C3c3ccccc3)nc12 (stereo not drawn) [Compound 5, 5-amino-2-(3-phenyl-1,3,4,5,6,7-hexahydro-2H-indazol-2-yl)thieno[3,2-d]thiazole-6-carbonitrile]",–,43.52 ± 0.359 µg/mL,–,56.5 ± 2.19 µg/mL,59 ± 1.28 µg/mL,12.90 ± 0.32,12.87 ± 0.32,high biofilm inhibition activity,97.7 ± 2.41 µg/mL,7.57 ± 0.36 µg/mL,7.59 ± 0.24 µg/mL,68%,–
"O=c1[nH]cc(F)c(=O)[nH]1 [Compound 5-FU, 5-fluorouracil, reference compound]",–,–,–,–,–,–,–,–,–,–,–,–,expression of the β-catenin gene (β-catenin gene): stimulated its expression
"N=C1CC(=O)Oc2nc(N3NC4=C(CCCC4)C3c3ccccc3)sc21 (stereo not drawn) [Compound 7, 7-imino-2-(3-phenyl-1,3,4,5,6,7-hexahydro-2H-indazol-2-yl)-6,7-dihydro-5H-pyrano [2,3-d]thiazol-5-one]",–,22.4 ± 0.317 µg/mL,–,43.9 ± 2.04 µg/mL,58.2 ± 1.21 µg/mL,10.99 ± 0.65,11.39 ± 0.67,–,105 ± 6.2 µg/mL,9.53 ± 0.32 µg/mL,9.2 ± 0.27 µg/mL,66%,–
"CCOC(=O)C1=C2N=C(N3NC4=C(CCCC4)C3c3ccccc3)SC2C(=S)S1 (stereo not drawn) [Compound 9, ethyl 2-(3-phenyl-1,3,4,5,6,7-hexahydro-2H-indazol-2-yl)-6-thioxo-6,6a-dihydrothieno [3,4-d]thiazole-4-carboxylate]",–,48.77 ± 0.246 µg/mL,–,61.5 ± 1.83 µg/mL,46.6 ± 1.2 µg/mL,12.55 ± 0.06,11.04 ± 0.05,–,65.65 ± 0.29 µg/mL,5.23 ± 0.25 µg/mL,5.95 ± 0.1 µg/mL,~79%,–
